For assay [1], the target named is SOS1/KRAS-G12D (Homo sapiens (Human), UniProt Q07889). Briefly: SOS1/KRAS-G12D binding inhibition assay (AlphaScreen). The note with it: GST-SOS1 and 6*His KRAS-G12D, read-out: KrasG12D/SOS1 binding IC50. The procedure:
Example 22: SOS1/KRAS-G12D Binding Inhibition Assay
SOS1 binding affinity of candidate compounds was measured by monitoring the interaction of SOS1 with KRAS-G12D in the presence of the test compound. Briefly, 5 nM GST tagged SOS1 proteins (final concentration) were pre-incubated with 50 nM 6*His tagged KRAS-G12D proteins (final concentration) in an assay buffer containing 10 mM HEPES, pH 7.4, 150 mM NaCl, 1 mM DTT, 5 mM MgCl2, 0.1% Tween-20, and 0.05% BSA for 30 minutes. The test compounds in 2% DMSO (final concentration) at various concentrations were then added to the reaction mixture and incubated for another 30 minutes at 4° C. 5 ug/ml GSH AlphaScreen donor beads (PerkinElmer, 6765300) and 5 ug/ml nickel chelate (Ni-NTA) AlphaScreen acceptor beads (PerkinElmer, 6760619C) (final concentrations) were then added to the mixture. After an incubation of 2 hours at 4° C., the fluorescent signals were obtained on the EnVision® 2105 Multilabel Plate Reader (PerkinElmer).
Raw AlphaScreen data were converted to a percentage of inhibition (relative to DMSO) using the following equations: • a) For a given test compound concentration X:
Signal (X)=Signal (SOS1 & KRAS-G12D & compound)-Signal (buffer & KRAS-G12D & compound)
Percentage of inhibition at concentration X=[1−Signal (X)/Signal (DMSO)]*100% b)
The IC50 values were determined by nonlinear regression of plots of [inhibitor] vs. percentage of inhibition with variable slope, analyzed using GraphPad Prism 9.
(In general: In Alpha technology, singlet oxygen from a donor bead excites a nearby acceptor bead.)

In assay [2] the test system is Phospho-ERK1/2 in DLD1 cells. As to the kind of experiment: Phospho-ERK1/2 expression inhibition in DLD1 cells. It counts as cell-based. The note with it: Homo sapiens, DLD-1, 4 hours, read-out: DLD1 pERK IC50. How it is done: Example 23: Phospho-ERK1/2 Expression Inhibition in DLD1 Cells
DLD1 cells were obtained from American Type Culture Collection (ATCC). DLD1 cells were plated in 96-well plates (VWR #10062-900, or Corning #3904) in 90 uL culture medium at a density of 15,000 cells/well in the RPM11640 growth medium containing 10% FBS and 1% Penicillin Streptomycin, and then incubated at 37° C. overnight. The following day, the test compound was administered to the cells by using 1000×x compound stock solution prepared in DMSO at various concentrations. 1000× compound stock solution was first diluted in culturing medium to 10×, then 10 uL compound medium was added to each well in the cell plates. After administration of the compound, the cells were then incubated at 37° C. for 4 hours. Upon completion, the cells were washed with PBS briefly. 150 uL/well of 4% formaldehyde was added and the plates were incubated at room temperature for 20 mins. The cells were washed with PBS briefly, and permeabilized with 150 uL/well of ice cold 100% methanol for 10 mins. The cells were washed with PBS briefly and blocked with 100 uL/well LI-COR blocking buffer for 1 hr at room temperature with gentle shaking. The cells were incubated overnight at 4° C. with 50 uL primary antibody rabbit anti-Phospho-ERK1/2 (1: 500, Cell Signaling, #4370) diluted in Intercept Blocking Buffer (LI-COR, #927-60001) containing 0.1% Tween 20. The next day, the cells were washed with 200 uL PBS containing 0.1% Tween 20, 5×5 mins at room temperature with gentle shaking, and incubated with 50 uL secondary antibody, IRDye® 800CW Goat anti-Rabbit IgG (LI-COR, #926-32211), 1:1000, in LI-COR blocking buffer with 0.2% Tween 20 for 1 hr at room temperature with gentle shaking. The cells were washed with 200 uL PBS containing 0.1% Tween 20, 5×5 mins at room temperature with gentle shaking. The cells were washed with PBS for 5 mins. 100 uL fresh PBS was added to each well and the plates were imaged on a LI-COR Odyssey CLX plate reader.

The subject of assay [3] is K562 cells. As to the kind of experiment: Cell growth inhibition of K562 cells (CellTiter-Glo). It counts as cell-based. To be noted: Homo sapiens, 120 h, 5 days. How it is done:
Example 24: Cell Growth Inhibition of K562 Cells
K562 cells were obtained from American Type Culture Collection (ATCC). For cell growth assay, K562 cells were seeded in 96-well plates at 1000 cells/well in 90 μl of RPM11640 growth medium containing 10% FBS and 1% Penicillin Streptomycin, and then incubated at 37° C. for 1 hour. The test compound was administered to the cells by using 1000× compound stock solution prepared in DMSO at various concentrations. 1000× compound stock solution was first diluted in culturing medium to 10×, then 10 uL compound medium was added to each well in the cell plates. After administration of the compound, the cells were then incubated at 37° C. for 5 days. Upon completion, the plates were equilibrated at room temperature for approximately 10 minutes. 100 ul of CellTiter-Glo® Reagent (Promega) was added to each well. The plates were then incubated at room temperature for 10 minutes and luminescence was recorded by EnSpire plate reader (PerkinElmer).
(In general: ATP-based viability assays read luminescence as a measure of living cells.)

Chain of SOS1/KRAS-G12D (Q07889 564-1049 limits assumed): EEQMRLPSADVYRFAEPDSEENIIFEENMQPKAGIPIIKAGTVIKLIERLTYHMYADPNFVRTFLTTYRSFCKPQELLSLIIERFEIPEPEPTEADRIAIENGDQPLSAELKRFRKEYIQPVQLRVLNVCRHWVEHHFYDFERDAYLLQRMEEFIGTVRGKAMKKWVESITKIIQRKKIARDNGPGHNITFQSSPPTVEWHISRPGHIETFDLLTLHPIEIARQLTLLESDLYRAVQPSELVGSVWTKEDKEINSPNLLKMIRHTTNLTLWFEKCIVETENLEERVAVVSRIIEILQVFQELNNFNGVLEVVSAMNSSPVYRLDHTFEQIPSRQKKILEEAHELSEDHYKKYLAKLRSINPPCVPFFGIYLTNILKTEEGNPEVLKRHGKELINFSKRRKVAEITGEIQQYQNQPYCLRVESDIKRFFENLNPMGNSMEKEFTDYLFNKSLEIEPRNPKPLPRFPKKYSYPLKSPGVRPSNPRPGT

For orientation: GI50 means the concentration that inhibits growth by half. Low readings indicate more potent growth inhibition, high ones less potent growth inhibition. Consider `Cc1cc(N[C@H](C)c2cccc(C(F)(F)F)c2C)c2cc(N3CCNCC3)ccc2n1` [Compound 1, (R)-2-methyl-N-(1-(2-methyl-3-(trifluoromethyl)phenyl)ethyl)-6-(piperazin-1-yl)quinolin-4-amine], for which the IC50 is 0.01 to 0.1 µM in assay [1] and > 0.5 µM in assay [2]. The GI50 in assay [3] is > 0.5 µM.

For the compound `Cc1c([C@@H](C)Nc2c(C#N)cnc3ccc(N4CCNCC4)cc23)cccc1C(F)(F)F` [Compound 2, (R)-4-((1-(2-methyl-3-(trifluoromethyl)phenyl)ethyl)amino)-6-(piperazin-1-yl)quinoline-3-carbonitrile], the IC50 in assay [1] is > 0.1 µM. Further, in assay [3], the GI50 is > 0.5 µM.

On to `Cc1c([C@@H](C)Nc2c(C#N)cnc3ccc(N4CCN(C(=O)C5CCOC5)CC4)cc23)cccc1C(F)(F)F` (stereo partly drawn) [Compound 3, 4-(((R)-1-(2-methyl-3-(trifluoromethyl)phenyl)ethyl)amino)-6-(4-(tetrahydrofuran-3-carbonyl)piperazin-1-yl)quinoline-3-carbonitrile], for which the IC50 in assay [1] was > 0.1 µM; in assay [2], > 0.5 µM. The GI50 in assay [3] is > 0.5 µM.

Take `Cc1cc(N[C@H](C)c2cccc(C(F)(F)F)c2C)c2cc(N3CCN(C(=O)C4CCOC4)CC3)ccc2n1` (stereo partly drawn) [Compound 4, (4-(2-methyl-4-(((R)-1-(2-methyl-3-(trifluoromethyl)phenyl)ethyl)amino)quinolin-6-yl)piperazin-1-yl)(tetrahydrofuran-3-yl)methanone]: the IC50 in assay [1] was 0.01 to 0.1 µM; in assay [2] it was > 0.5 µM. In addition, the GI50 in assay [3] lay within 0.1 to 0.5 µM.

Take `Cc1c([C@@H](C)Nc2ccnc3ccc(N4CCNCC4)cc23)cccc1C(F)(F)F` [Compound 5, (R)-N-(1-(2-methyl-3-(trifluoromethyl)phenyl)ethyl)-6-(piperazin-1-yl)quinolin-4-amine]: the IC50 in assay [1] was 0.01 to 0.1 µM. Besides, in assay [3], the GI50 was > 0.5 µM.

In the case of `Cc1c([C@@H](C)Nc2ccnc3ccc(N4CCN(C(=O)C5CCOC5)CC4)cc23)cccc1C(F)(F)F` (stereo partly drawn) [Compound 6, (4-(4-(((R)-1-(2-methyl-3-(trifluoromethyl)phenyl)ethyl)amino)quinolin-6-yl)piperazin-1-yl)(tetrahydrofuran-3-yl)methanone], the IC50 was 0.01 to 0.1 µM in assay [1] and 0.15 to 0.5 µM in assay [2]. Also, the GI50 in assay [3] was in the range of 0.1 to 0.5 µM.

Consider `CC(=O)N[C@@H]1CCN(c2ccc3ncc(C#N)c(N[C@H](C)c4cccc(C(F)F)c4F)c3c2)C1` [Compound 7, N-((R)-1-(3-cyano-4-(((R)-1-(3-(difluoromethyl)-2-fluorophenyl)ethyl)amino)quinolin-6-yl)pyrrolidin-3-yl)acetamide], for which the IC50 in assay [1] is > 0.1 µM. Moreover, the GI50 in assay [3] was > 0.5 µM.

Regarding `C[C@@H](Nc1ccnc2ccc(N3CC[C@@H](NC(=O)OC(C)(C)C)C3)cc12)c1cccc(C(F)F)c1F` [Compound 8, tert-butyl ((R)-1-(4-(((R)-1-(3-(difluoromethyl)-2-fluorophenyl)ethyl)amino)quinolin-6-yl)pyrrolidin-3-yl)carbamate], the IC50 in assay [1] is 0.01 to 0.1 µM; in assay [2], 0.15 to 0.5 µM. The GI50 in assay [3] was > 0.5 µM.

Turning to `C[C@@H](Nc1ccnc2ccc(N3CC[C@@H](N)C3)cc12)c1cccc(C(F)F)c1F` [Compound 9, 6-((R)-3-aminopyrrolidin-1-yl)-N-((R)-1-(3-(difluoromethyl)-2-fluorophenyl)ethyl)quinolin-4-amine], the IC50 is ≤ 0.01 µM in assay [1] and 0.15 to 0.5 µM in assay [2]. The GI50 in assay [3] fell in the range of 0.1 to 0.5 µM.

With `C[C@@H](Nc1ccnc2ccc(C3CCNCC3)cc12)c1cccc(C(F)F)c1F` [Compound 10, (R)-N-(1-(3-(difluoromethyl)-2-fluorophenyl)ethyl)-6-(piperidin-4-yl)quinolin-4-amine], the figures for the IC50 in assay [1] and in assay [2] were 0.01 to 0.1 µM and > 0.5 µM, respectively. In assay [3], this compound had a GI50 of 0.1 to 0.5 µM.

As to `CC(=O)N[C@@H]1CCN(c2ccc3nccc(N[C@H](C)c4cccc(C(F)F)c4F)c3c2)C1` [Compound 11, N-((R)-1-(4-(((R)-1-(3-(difluoromethyl)-2-fluorophenyl)ethyl)amino)quinolin-6-yl)pyrrolidin-3-yl)acetamide], the IC50 in assay [1] lay in the range of 0.01 to 0.1 µM; in assay [2], 0.15 to 0.5 µM. The 50% growth inhibitory concentration (GI50) in assay [3] was ≤ 0.1 µM.

Consider `CC(=O)N1CCN(c2ccc3nccc(N[C@H](C)c4cccc(C(F)F)c4F)c3c2)CC1` [Compound 12, (R)-1-(4-(4-((1-(3-(difluoromethyl)-2-fluorophenyl)ethyl)amino)quinolin-6-yl)piperazin-1-yl)ethan-1-one], for which the IC50 is ≤ 0.01 µM in assay [1] and ≤ 0.15 µM in assay [2]. Moreover, in assay [3], the GI50 was ≤ 0.1 µM.

Take `Cc1c([C@@H](C)Nc2ccnc3ccc(N4CCOCC4)cc23)cccc1C(F)(F)F` [Compound 37, (R)-N-(1-(2-methyl-3-(trifluoromethyl)phenyl)ethyl)-6-morpholinoquinolin-4-amine]: the IC50 in assay [2] was in the range of 0.15 to 0.5 µM. For the same compound, in assay [3], the GI50 fell in the range of 0.1 to 0.5 µM.

Regarding `CC(=O)N1CCN(c2ccc3nccc(N[C@H](C)c4cccc(C(F)(F)F)c4C)c3c2)[C@H](C)C1` [Compound 67, 1-((R)-3-methyl-4-(4-(((R)-1-(2-methyl-3-(trifluoromethyl)phenyl)ethyl)amino)quinolin-6-yl)piperazin-1-yl)ethan-1-one], in assay [2], the IC50 was > 0.5 µM. Moreover, the GI50 in assay [3] is > 0.5 µM.

As to `Cc1c([C@@H](C)Nc2ccnc3ccc(N4CCNC[C@H]4C)cc23)cccc1C(F)(F)F` [Compound 68, N-((R)-1-(2-methyl-3-(trifluoromethyl)phenyl)ethyl)-6-((R)-2-methylpiperazin-1-yl)quinolin-4-amine], the IC50 in assay [2] was > 0.5 µM. Also, in assay [3], the GI50 was > 0.5 µM.

With `CC(=O)N1CC[C@@](F)(c2ccc3nccc(N[C@H](C)c4cccc(C(F)F)c4F)c3c2)C1` [Compound 86, 1-((R)-3-(4-(((R)-1-(3-(difluoromethyl)-2-fluorophenyl)ethyl)amino)quinolin-6-yl)-3-fluoropyrrolidin-1-yl)ethan-1-one], the IC50 in assay [1] is > 0.1 µM. In assay [3], the GI50 is > 0.5 µM.

As for `[2H]C([2H])([2H])O[C@]1(c2ccc3nccc(N[C@H](C)c4cccc(C(F)F)c4F)c3c2)CCN(C(C)=O)C1` [Compound 93, 1-((S)-3-(4-(((R)-1-(3-(difluoromethyl)-2-fluorophenyl)ethyl)amino)quinolin-6-yl)-3-(methoxy-d3)pyrrolidin-1-yl)ethan-1-one], in assay [2], the IC50 is ≤ 0.15 µM. Also, in assay [3], the GI50 was ≤ 0.1 µM.

With `[2H]C([2H])([2H])O[C@@]1(c2ccc3nccc(N[C@H](C)c4cccc(C(F)F)c4F)c3c2)CCN(C(C)=O)C1` [Compound 94, 1-((R)-3-(4-(((R)-1-(3-(difluoromethyl)-2-fluorophenyl)ethyl)amino)quinolin-6-yl)-3-(methoxy-d3)pyrrolidin-1-yl)ethan-1-one], in assay [2], the IC50 was ≤ 0.15 µM. Moreover, in assay [3], the GI50 is ≤ 0.1 µM.

The values above are taken from patent US20240208909A1, “SUBSTITUTED QUINOLINE DERIVATIVES HAVING SOS1 INHIBITION ACTIVITIES AND USES THEREOF” (Accutar Biotechnology Inc., priority 2022, published 2024).
